Tested on: male spontaneously hypertensive rats
Test: Decrease in systolic blood pressure in spontaneously hypertensive rats after intravenous bolus injection, indirect (tail-cuff) method
Format: in vivo, rat
Conditions: for Decrease in systolic blood pressure (mmHg) time after administration (hour) 0.5: 0.5 hour after administration; for Decrease in systolic blood pressure (mmHg) time after administration (hour) 4: 4 hours after administration
Procedure: As test animals, four male spontaneously hypertensive rats (weight 400 to 440 g) that were sufficiently adapted for feeding and in which hypertension was confirmed were used.
Physiological saline aqueous solution containing 2.5% Nicolle and 2.5% ethanol of sample was intravenously administered by bolus injection at a dose of 1 ml per 1 kg of body weight. Systolic blood pressure after administration was measured by the indirect (tail-cuff) method.

Row | Compound | Decrease in systolic blood pressure (mmHg) time after administration (hour) 0.5 (dose 10 mg/kg i.v. bolus) [mmHg] | Decrease in systolic blood pressure (mmHg) time after administration (hour) 4 (dose 10 mg/kg i.v. bolus) [mmHg] | Decrease in systolic blood pressure (mmHg) time after administration (hour) 0.5 (dose 3 mg/kg i.v. bolus) [mmHg] | Decrease in systolic blood pressure (mmHg) time after administration (hour) 4 (dose 3 mg/kg i.v. bolus) [mmHg] | Decrease in systolic blood pressure (mmHg) time after administration (hour) 0.5 (dose 1 mg/kg i.v. bolus) [mmHg]
1 | C1=Cc2ccccc2C(=C2CCN(CCCOc3ccccc3)CC2)c2ccccc21.Cl [Example 20, 3-(4-(5H-Dibenzo[a,d]cyclohepten-5-ylidene)-1-piperidinyl)-1-phenoxypropane hydrochloride] | −37 | 2 | – | – | –
2 | Cl.N#Cc1ccc(C=CCN2CCC(=C3c4ccccc4C=Cc4ccccc43)CC2)cc1 [Example 346, 1-(4-Cyanocinnamyl)-4-(5H-Dibenzo[a,d]cyclohepten-5-ylidene)-1-piperidine hydrochloride] | – | – | −142 | −121 | –
3 | Cl.O=C(CCCN1CCC(=C2c3ccccc3C=Cc3ccccc32)CC1)c1ccc(F)cc1 [Example 125, 4-(4-(5H-Dibenzo[a,d]cyclohepten-5-ylidene)-1-piperidinyl)-4′-fluorobutyrophenone hydrochloride] | −93 | −14 | – | – | –
4 | C1=Cc2ccccc2C(=C2CCN(CCCOC3CCCCO3)CC2)c2ccccc21.Cl (stereo not shown) [Example 235, 3-(4-(5H-Dibenzo[a,d]cyclohepten-5-ylidene)-1-piperidinyl)-1-propyl(2-tetrahydropyranyl)ether hydrochloride] | −99 | −5 | – | – | –
5 | CC(=O)Oc1ccc(C=CCN2CCC(=C3c4ccccc4C=Cc4ccccc43)CC2)cc1.Cl [Example 364, 1-(4-Acetoxycinnamyl)-4-(5H-Dibenzo[a,d]cyclohepten-5-ylidene)piperidine hydrochloride] | – | – | – | – | −113
6 | Cc1ccc(CN2CCC(=C3c4ccccc4C=Cc4ccccc43)CC2)cc1.Cl [Example 133, 4-(5H-Dibenzo[a,d]cyclohepten-5-ylidene)-1-(4-methylbenyl)piperidine hydrochloride] | – | – | −146 | −84 | –
7 | N-(2-(5H-Dibenzo[a,d]cyclohepten-5-ylidene)-1-piperidinyl)ethyl isonicotinamide hydrochloride [Example 244] | −19 | 4 | – | – | –
8 | 4-(2-(4-(5H-Dibenzo[a,d]cyclohepten-5-ylidene)-1-piperidinyl)-1-ehtyl)-2,4,5,6-tetramethyl-1,4-dihydropyridino-3,5-dicarboxylate hydrochloride [Example 311] | −90 | −18 | – | – | –
9 | C1=Cc2ccccc2C(=C2CCN(CCC3CCCCC3)CC2)c2ccccc21.Cl [Example 8, 1-Cyclohexyl-2-(4-(5H-dibenzo[a,d]cyclohepten-5-ylidene)-1-piperidinyl)ethane hydrochloride] | −95 | −21 | – | – | –
10 | Cl.OC(CCCN1CCC(=C2c3ccccc3C=Cc3ccccc32)CC1)c1ccccc1 (stereo not shown) [Example 101, 4-(4-(5H-Dibenzo[a,d]cyclohepten-5-ylidene)-1-piperidinyl)-1-hydroxy-1-phenylbutane hydrochloride] | −89 | −14 | – | – | –
11 | COc1ccc2c(c1OC)CCC(CCN1CCC(=C3c4ccccc4C=Cc4ccccc43)CC1)C2.Cl (stereo not shown) [Example 318, 2-(3-(4-(5H-Dibenzo[a,d]cyclohepten-5-ylidene)-1-piperidinyl)-1-ethyl)-5,6-dimethoxy-1,2,34-tetrahydronaphthalene hydrochloride] | −83 | −57 | – | – | –
12 | Cl.O=[N+]([O-])c1cccc(C=CCN2CCC(=C3c4ccccc4C=Cc4ccccc43)CC2)c1 [Example 306, 4-(5H-Dibenzo[a,d]cyclohepten-5-ylidene)-1-(3-nitrocinnamyl)piperidine hydrochloride] | −138 | −37 | – | – | –
13 | CCCCCCCCCCCCCCCCCCCN1CCC(=C2c3ccccc3C=Cc3ccccc32)CC1.Cl [Example 135, 4-(5H-Dibenzo[a,d]cyclohepten-5-ylidene)-1-nondecylpiperidine hydrochloride] | −132 | −50 | – | – | –
14 | COCC(=O)Oc1cccc(C=CCN2CCC(=C3c4ccccc4C=Cc4ccccc43)CC2)c1.Cl [Example 369, 4-(5H-Dibenzo[a,d]cyclohepten-5-ylidene)-1-(3-(2-methoxyacetoxy)cinnamyl)piperidine hydrochloride] | −101 | −83 | – | – | –
15 | C1=Cc2ccccc2C(=C2CCN(Cc3ccncc3)CC2)c2ccccc21.Cl.Cl [Example 163, 4-(5H-Dibenzo[a,d]cyclohepten-5-ylidene)-1-(4-Picolyl)piperidine dihydrochloride] | −1 | 4 | – | – | –
16 | C1=Cc2ccccc2C(=C2CCN(CCCc3ccncc3)CC2)c2ccccc21.Cl.Cl [Example 289, 3-(4-(5H-Dibenzo[a,d]cyclohepten-5-ylidene)-1-piperidinyl)-1-(4-pyridyl)propane dihydrochloride] | – | – | −20 | 10 | –
17 | Cl.O=[N+]([O-])c1cccc2c1CC(CN1CCC(=C3c4ccccc4C=Cc4ccccc43)CC1)C2 (stereo not shown) [Example 329, 2-(4-(5H-Dibenzo[a,d]cyclohepten-5-ylidene)-1-piperidinyl)methyl-4′-nitroindan hydrochloride] | −34 | −7 | – | – | –
18 | Cl.Cl.Nc1cccc(CN2CCC(=C3c4ccccc4C=Cc4ccccc43)CC2)c1 [Example 139, 1-(3-Aminobenzy)-4-(5H-Dibenzo[a,d]cyclohepten-5-ylidene)piperidine dihydrochloride] | −139 | −89 | – | – | –
19 | C=CCC(CCN1CCC(=C2c3ccccc3C=Cc3ccccc32)CC1)C(=O)c1ccc(OC)c(OC)c1.Cl (stereo not shown) [Example 276, 2-Allyl-4-(4-(5H-dibenzo[a,d]cyclohepten-5-ylidene)-1-piperidinyl)-3′,4′dimethoxybutyrophenone hydrochloride] | −24 | −1 | – | – | –
20 | C1=Cc2ccccc2C(=C2CCN(CCCC3CCCCN3)CC2)c2ccccc21.Cl.Cl (stereo not shown) [Example 307, 3-(4-(5H-Dibenzo[a,d]cyclohepten-5-ylidene)-1-piperidinyl)-1-(2-piperidinyl)propane dihydrochloride] | −62 | −20 | – | – | –
21 | COc1cc(C(=O)N2CCC(=C3c4ccccc4C=Cc4ccccc43)CC2)cc(OC)c1OC [Example 189, 4-(5H-Dibenzo[a,d]cyclohepten-5-ylidene)-1-(3,4,5-trimethoxybenzoyl)piperidine] | −72 | −15 | – | – | –
22 | CCOC(=O)c1ccc(C=CCN2CCC(=C3c4ccccc4C=Cc4ccccc43)CC2)cc1.Cl [Example 382, 4-(5H-Dibenzo[a,d]cyclohepten-5-ylidene)-1-(4-ethoxycarbonylcinnamyl)piperidine hydrochloride] | – | – | −129 | −74 | –
23 | COc1cccc(C=CCN2CCC(=C3c4ccccc4C=Cc4ccccc43)CC2)c1OC.Cl [Example 193, 4-(5H-Dibenzo[a,d]cyclohepten-5-ylidene)-1-(2-dimethoxycinnamyl)piperidine hydrochloride] | −124 | −59 | – | – | –
24 | Cl.O=[N+]([O-])c1ccc(CCCCN2CCC(=C3c4ccccc4C=Cc4ccccc43)CC2)cc1 [Example 196, 4-(5H-Dibenzo[a,d]cyclohepten-5-ylidene)-1-(4-(4-nitrophenyl)butyl)piperidine hydrochloride] | −145 | −81 | – | – | –
25 | Cl.Clc1ccccc1CN1CCC(=C2c3ccccc3C=Cc3ccccc32)CC1 [Example 128, 1-(2-Chlorobenzyl)-4-(5H-Dibenzo[a,d]cyclohepten-5-ylidene)piperidine hydrochloride] | −129 | −8 | – | – | –
26 | CCOC(=O)CCCN1CCC(=C2c3ccccc3C=Cc3ccccc32)CC1.Cl [Example 199, Ethyl 4-(4-(5H-dibanzo[a,d]cyclohepten-5-ylidene)-1-piperidinyl)butyrate hydrochloride] | −15 | −24 | – | – | –
27 | Cl.Oc1ccc(C=CCN2CCC(=C3c4ccccc4C=Cc4ccccc43)CC2)cc1 [Example 363, 4-(5H-Dibenzo[a,d]cyclohepten-5-ylidene)-1-(4-hydroxycinnamyl)piperidine hydrochloride] | – | – | −120 | – | –
